Assay results from ChEMBL document CHEMBL5465560, “Selectivity Literature for EUbOPEN Chemogenomic Library” (2024).

What was measured:
[1] = target: T1, Serine/threonine-protein kinase ULK3 (Homo sapiens) (UniProt Q6PHR2); assay: Selectivity interaction (KinomeScan (DiscoverX)) EUB0001049a ULK3; conditions: at 1 µM
T1 sequence (whole entry): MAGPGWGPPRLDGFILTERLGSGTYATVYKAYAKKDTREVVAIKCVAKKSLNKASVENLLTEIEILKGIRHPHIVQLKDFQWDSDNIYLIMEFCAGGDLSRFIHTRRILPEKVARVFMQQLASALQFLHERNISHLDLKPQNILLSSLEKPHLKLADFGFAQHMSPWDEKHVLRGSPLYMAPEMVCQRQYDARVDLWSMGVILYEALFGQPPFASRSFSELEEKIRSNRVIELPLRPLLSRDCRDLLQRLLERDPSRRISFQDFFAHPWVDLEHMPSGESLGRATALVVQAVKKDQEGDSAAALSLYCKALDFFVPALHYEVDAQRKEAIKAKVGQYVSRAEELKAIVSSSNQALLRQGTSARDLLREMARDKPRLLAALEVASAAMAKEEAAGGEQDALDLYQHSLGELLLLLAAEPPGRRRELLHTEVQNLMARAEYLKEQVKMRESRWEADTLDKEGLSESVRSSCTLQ

[2] = target: RAC-alpha serine/threonine-protein kinase (Homo sapiens, UniProt P31749); assay: Selectivity interaction (ActivX KiNativ screen (kinase selectivity in THP-1 cell lysates)) EUB0000639a AKT1; format: subcellular; conditions: lysate
[3] = target: Tyrosine-protein kinase JAK1 (Homo sapiens, UniProt P23458); assay: Selectivity interaction (ActivX KiNativ screen (kinase selectivity in THP-1 cell lysates)) EUB0000639a JAK1; format: subcellular; conditions: lysate, at 0.04 µM
[4] = target: Ribosomal protein S6 kinase alpha-1 (Homo sapiens, UniProt Q15418); assay: Selectivity interaction (KinomeScan (DiscoverX)) EUB0000229b RPS6KA1; conditions: at 10 µM
[5] = target: T2, Phosphatidylinositol 5-phosphate 4-kinase type-2 alpha (Homo sapiens) (UniProt P48426); assay: Selectivity interaction (ActivX KiNativ screen (ex vivo kinase selectivity in human PBMCs)) EUB0001619a PIP4K2A; format: cell-based; conditions: PBMC, at 1 µM
T2 sequence (whole entry): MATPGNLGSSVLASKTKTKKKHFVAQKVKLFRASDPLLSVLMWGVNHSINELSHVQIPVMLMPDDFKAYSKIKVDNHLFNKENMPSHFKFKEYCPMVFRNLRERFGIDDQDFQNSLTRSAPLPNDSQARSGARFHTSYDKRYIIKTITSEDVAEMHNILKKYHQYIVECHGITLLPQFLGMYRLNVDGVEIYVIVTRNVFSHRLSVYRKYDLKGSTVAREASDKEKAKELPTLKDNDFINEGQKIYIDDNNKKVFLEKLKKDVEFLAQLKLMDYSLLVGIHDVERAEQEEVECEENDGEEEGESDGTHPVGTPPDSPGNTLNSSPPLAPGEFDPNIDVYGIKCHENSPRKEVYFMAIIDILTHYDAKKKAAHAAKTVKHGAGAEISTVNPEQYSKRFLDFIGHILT

[6] = target: T3, Serine/threonine-protein kinase LATS2 (Homo sapiens) (UniProt Q9NRM7); assay: Selectivity interaction (KinomeScan (DiscoverX)) EUB0000618a LATS2; conditions: at 10 µM
T3 sequence (whole entry): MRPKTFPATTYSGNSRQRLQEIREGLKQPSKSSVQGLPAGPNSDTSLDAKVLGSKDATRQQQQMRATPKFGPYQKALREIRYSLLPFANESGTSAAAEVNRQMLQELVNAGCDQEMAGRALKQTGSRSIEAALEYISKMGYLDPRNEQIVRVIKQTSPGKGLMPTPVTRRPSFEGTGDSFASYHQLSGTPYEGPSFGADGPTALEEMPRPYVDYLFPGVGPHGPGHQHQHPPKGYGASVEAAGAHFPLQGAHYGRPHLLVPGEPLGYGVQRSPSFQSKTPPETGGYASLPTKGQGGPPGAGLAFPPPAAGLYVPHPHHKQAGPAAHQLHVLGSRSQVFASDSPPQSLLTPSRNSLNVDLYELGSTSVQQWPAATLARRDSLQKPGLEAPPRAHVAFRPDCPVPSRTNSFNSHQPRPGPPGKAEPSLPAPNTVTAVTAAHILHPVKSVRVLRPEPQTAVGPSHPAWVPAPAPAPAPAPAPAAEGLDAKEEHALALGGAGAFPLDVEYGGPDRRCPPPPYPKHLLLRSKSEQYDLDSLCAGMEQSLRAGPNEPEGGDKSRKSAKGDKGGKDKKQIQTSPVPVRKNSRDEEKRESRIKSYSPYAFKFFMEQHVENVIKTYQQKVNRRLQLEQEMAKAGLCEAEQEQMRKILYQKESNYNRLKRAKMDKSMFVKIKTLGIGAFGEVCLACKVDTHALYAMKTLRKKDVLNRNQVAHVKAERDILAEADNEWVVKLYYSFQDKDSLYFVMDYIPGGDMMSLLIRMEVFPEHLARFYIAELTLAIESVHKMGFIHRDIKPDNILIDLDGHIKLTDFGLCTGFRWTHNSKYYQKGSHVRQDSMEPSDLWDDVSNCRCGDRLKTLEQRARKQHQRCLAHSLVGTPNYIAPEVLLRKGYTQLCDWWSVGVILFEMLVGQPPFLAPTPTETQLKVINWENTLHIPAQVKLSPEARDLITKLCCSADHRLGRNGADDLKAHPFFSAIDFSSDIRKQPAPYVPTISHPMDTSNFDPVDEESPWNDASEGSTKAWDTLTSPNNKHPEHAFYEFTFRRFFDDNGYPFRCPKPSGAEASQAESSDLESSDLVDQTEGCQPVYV

[7] = target: ALK tyrosine kinase receptor (Homo sapiens, UniProt Q9UM73); assay: Selectivity interaction (KinomeScan (DiscoverX)) EUB0000607a ALK; conditions: at 10 µM
Sequence of ALK tyrosine kinase receptor (Q9UM73 19-1620 limits assumed): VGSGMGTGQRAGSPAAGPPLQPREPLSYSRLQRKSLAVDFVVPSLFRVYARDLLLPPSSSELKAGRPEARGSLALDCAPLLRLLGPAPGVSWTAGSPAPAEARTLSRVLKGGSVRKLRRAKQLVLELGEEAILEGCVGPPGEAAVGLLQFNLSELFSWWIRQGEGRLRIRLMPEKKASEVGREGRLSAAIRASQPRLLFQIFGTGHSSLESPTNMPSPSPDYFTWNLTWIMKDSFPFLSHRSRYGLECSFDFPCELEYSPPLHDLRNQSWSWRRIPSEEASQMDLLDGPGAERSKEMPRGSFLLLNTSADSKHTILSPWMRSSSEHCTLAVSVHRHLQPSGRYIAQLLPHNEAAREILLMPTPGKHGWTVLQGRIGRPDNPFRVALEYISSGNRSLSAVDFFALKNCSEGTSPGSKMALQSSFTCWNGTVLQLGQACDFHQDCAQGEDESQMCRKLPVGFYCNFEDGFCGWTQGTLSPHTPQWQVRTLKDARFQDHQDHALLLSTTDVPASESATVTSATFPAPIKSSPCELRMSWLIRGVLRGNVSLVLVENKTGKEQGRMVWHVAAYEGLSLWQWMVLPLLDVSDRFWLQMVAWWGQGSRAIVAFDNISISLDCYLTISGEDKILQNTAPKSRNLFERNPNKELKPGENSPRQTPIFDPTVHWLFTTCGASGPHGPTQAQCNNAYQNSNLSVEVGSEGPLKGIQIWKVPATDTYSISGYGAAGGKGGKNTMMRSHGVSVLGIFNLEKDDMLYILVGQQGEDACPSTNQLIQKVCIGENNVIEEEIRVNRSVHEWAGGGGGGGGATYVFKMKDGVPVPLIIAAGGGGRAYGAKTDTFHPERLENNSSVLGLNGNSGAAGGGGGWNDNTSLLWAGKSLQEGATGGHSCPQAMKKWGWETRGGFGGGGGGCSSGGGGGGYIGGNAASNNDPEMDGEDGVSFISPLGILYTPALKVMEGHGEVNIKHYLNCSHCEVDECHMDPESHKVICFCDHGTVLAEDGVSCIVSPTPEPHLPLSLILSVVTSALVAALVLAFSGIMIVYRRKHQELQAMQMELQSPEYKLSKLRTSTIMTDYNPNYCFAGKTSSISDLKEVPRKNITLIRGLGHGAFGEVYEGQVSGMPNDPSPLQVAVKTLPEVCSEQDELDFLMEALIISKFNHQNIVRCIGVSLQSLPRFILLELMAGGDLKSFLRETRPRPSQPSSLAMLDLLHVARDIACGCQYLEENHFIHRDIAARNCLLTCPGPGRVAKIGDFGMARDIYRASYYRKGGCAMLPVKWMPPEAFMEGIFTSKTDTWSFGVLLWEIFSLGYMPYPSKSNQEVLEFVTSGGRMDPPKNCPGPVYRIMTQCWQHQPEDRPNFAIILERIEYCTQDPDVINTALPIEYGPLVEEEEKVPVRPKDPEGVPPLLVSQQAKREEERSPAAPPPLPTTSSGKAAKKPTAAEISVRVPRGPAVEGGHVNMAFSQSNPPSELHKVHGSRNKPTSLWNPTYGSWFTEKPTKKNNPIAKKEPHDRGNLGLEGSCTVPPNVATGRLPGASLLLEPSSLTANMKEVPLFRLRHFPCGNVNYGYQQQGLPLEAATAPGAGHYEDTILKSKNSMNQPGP

Sequence of RAC-alpha serine/threonine-protein kinase (P31749 whole entry): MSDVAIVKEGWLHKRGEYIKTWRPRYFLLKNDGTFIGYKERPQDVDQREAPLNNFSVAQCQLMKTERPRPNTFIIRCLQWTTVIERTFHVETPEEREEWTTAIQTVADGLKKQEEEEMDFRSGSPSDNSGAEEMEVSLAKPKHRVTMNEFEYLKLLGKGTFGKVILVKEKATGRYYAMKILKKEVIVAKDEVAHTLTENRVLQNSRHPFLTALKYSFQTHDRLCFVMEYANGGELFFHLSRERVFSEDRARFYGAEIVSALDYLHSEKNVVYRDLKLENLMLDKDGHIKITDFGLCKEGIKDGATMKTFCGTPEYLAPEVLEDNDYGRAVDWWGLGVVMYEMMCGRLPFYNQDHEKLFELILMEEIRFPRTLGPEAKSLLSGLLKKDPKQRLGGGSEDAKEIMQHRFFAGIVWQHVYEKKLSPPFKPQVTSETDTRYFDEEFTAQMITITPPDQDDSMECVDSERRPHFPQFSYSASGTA
Sequence of Tyrosine-protein kinase JAK1 (P23458 whole entry): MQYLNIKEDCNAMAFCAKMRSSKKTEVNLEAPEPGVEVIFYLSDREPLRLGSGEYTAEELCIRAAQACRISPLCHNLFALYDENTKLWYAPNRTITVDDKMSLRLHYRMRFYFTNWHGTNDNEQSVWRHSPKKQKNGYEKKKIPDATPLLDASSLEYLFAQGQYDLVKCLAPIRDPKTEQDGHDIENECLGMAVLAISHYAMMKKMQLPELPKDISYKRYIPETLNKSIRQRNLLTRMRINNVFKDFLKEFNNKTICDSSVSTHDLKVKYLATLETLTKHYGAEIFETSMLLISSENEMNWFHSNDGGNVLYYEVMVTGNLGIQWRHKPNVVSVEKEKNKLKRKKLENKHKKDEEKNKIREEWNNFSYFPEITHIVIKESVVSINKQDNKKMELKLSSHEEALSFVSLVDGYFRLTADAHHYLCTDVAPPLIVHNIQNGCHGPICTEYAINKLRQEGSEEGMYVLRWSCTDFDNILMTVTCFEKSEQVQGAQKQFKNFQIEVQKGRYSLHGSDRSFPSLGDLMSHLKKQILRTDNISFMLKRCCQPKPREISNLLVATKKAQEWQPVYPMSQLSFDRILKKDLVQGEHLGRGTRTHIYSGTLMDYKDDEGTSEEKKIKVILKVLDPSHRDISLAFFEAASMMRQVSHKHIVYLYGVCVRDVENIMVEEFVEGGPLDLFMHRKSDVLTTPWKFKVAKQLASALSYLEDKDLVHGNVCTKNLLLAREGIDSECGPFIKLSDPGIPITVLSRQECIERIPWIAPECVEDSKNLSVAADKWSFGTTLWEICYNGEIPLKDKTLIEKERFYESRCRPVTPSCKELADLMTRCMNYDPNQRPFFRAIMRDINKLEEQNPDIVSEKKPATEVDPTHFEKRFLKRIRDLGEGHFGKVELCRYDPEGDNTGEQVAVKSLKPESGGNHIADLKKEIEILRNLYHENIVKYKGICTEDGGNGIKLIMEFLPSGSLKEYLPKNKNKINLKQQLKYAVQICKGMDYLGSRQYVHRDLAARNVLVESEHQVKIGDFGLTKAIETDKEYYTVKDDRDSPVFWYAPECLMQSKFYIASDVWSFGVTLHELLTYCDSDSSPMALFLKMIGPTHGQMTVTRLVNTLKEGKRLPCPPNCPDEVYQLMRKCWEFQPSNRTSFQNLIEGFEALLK
Sequence of Ribosomal protein S6 kinase alpha-1 (Q15418 whole entry): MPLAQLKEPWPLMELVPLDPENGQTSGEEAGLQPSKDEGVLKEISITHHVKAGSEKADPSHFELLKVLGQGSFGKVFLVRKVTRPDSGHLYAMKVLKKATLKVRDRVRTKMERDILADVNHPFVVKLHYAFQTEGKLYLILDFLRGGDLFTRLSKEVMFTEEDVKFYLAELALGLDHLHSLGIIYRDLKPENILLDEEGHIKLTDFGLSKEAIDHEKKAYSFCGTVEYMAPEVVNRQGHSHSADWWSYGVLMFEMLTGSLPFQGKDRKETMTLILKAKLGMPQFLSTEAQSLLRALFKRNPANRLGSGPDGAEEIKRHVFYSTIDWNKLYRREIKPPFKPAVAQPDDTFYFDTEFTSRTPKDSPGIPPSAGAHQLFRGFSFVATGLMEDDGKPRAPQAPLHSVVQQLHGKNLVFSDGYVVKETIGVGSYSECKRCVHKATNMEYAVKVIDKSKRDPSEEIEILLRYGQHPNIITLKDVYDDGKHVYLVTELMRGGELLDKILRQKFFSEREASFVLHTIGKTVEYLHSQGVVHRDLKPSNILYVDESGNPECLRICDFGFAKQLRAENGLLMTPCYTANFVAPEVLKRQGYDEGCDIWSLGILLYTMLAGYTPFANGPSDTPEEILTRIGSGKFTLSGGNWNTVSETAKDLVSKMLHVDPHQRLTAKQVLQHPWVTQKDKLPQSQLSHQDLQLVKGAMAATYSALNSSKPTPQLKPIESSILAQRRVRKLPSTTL

COc1cc(Nc2nc(C)cc(-c3cnn4nc(OC)ccc34)n2)cc(C(F)(F)F)c1
% of control [1]: 79%

CC[C@@H]1[C@H](F)C(=O)N[C@@H]1COc1nccc2cc(C(N)=O)c(OC)cc12 [ZIMLOVISERTIB]
% of inhibition ([2]; at 0.01 µM): -4.8% | % of inhibition ([2]; at 0.04 µM): 7.5% | % of inhibition ([2]; at 0.2 µM): 11.8% | % of inhibition ([2]; at 1 µM): 9.4% | % of inhibition ([2]; at 5 µM): 7.6% | % of inhibition [3]: 14.8%

COc1cc(N(C)c2ccnc3ccc(C(F)(F)F)cc23)cc(OC)c1OC
% binding [4]: 100%

N#Cc1cccc(-c2c[nH]c3ncnc(N4CCOCC4)c23)c1
% of inhibition [5]: 15%

O[C@H]1CC[C@H](Nc2ncc3nc(Nc4c(F)cc(F)cc4F)n([C@H]4CCOC4)c3n2)CC1
% of control [6]: 88%

CNC(=O)Nc1ccc(-c2nc(N3CC4CCC(C3)O4)c3cnn(C4CCC5(CC4)OCCO5)c3n2)cc1
% of control [7]: 42%
